According to ChEMBL document CHEMBL1148901, “07H239-A, a new cytotoxic eremophilane sesquiterpene from the marine-derived Xylariaceous fungus LL-07H239” (J Nat Prod, 2004):
≈ marks a conversion by molar mass, not a printed value.

How the values were obtained:
Assay type in all cases: functional, cell-based
[1] = test system: A549; test: Cytotoxicity against human A549 cells
[2] = test system: MCF7; test: Cytotoxicity against human MCF7 cells
[3] = test system: Caco-2; test: Cytotoxicity against human Caco-2 cells
[4] = Cytotoxicity against human LOX cells
[5] = test system: COLO 205; test: Cytotoxicity against human COLO205 cells
[6] = Cytotoxicity against human NEC cells
[7] = test system: SK-BR-3; test: Cytotoxicity against human SK-BR-3 cells
[8] = test system: PC-3; test: Cytotoxicity against human PC3 cells
[9] = test system: CCRF-CEM; test: Cytotoxicity against human CCRF-CEM cells
[10] = Cytotoxicity against human A2780S cells; settings: A2780
[11] = Cytotoxicity against human LS 174T cells; settings: LS174T
[12] = Cytotoxicity against human […] cells
[13] = test system: LNCaP; test: Cytotoxicity against human LNCAP cells
[14] = test system: CX-1; test: Cytotoxicity against human CX-1 cells
[15] = test system: DU-145; test: Cytotoxicity against human DU145 cells
[16] = Cytotoxicity against human A2780DDP cells
[17] = test system: SW-620; test: Cytotoxicity against human SW620 cells
[18] = test system: SW948; test: Cytotoxicity against human SW948 cells
[19] = test system: HCT-15; test: Cytotoxicity against human HCT15 cells
[20] = test system: T47D; test: Cytotoxicity against human T47D cells
[21] = Cytotoxicity against human CCL228 cells
[22] = test system: LX-1; test: Cytotoxicity against human LX1 cells

C=C(C=O)[C@@H]1C[C@@]2(C)C(=CC1=O)[C@H](OC(=O)/C=C/C=C/C(C)CC(C)CC)CC[C@@H]2C(=O)O (relative stereo)
IC50 [1]: 3.95 µg/mL (≈ 8.65 µM)
IC50 [2]: 2.83 µg/mL (≈ 6.2 µM)
IC50 [3]: 3.25 µg/mL (≈ 7.12 µM)
IC50 [4]: 3.43 µg/mL (≈ 7.51 µM)
IC50 [5]: 3.41 µg/mL (≈ 7.47 µM)
IC50 [6]: 3.38 µg/mL (≈ 7.4 µM)
IC50 [7]: 3.53 µg/mL (≈ 7.73 µM)
IC50 [8]: 3.59 µg/mL (≈ 7.86 µM)
IC50 [9]: 0.88 µg/mL (≈ 1.93 µM)
IC50 [10]: 3.09 µg/mL (≈ 6.77 µM)
IC50 [11]: 3.29 µg/mL (≈ 7.21 µM)
IC50 [12]: 2.47 µg/mL (≈ 5.41 µM)
IC50 [13]: 3.06 µg/mL (≈ 6.7 µM)
IC50 [14]: 3.21 µg/mL (≈ 7.03 µM)
IC50 [15]: 3.06 µg/mL (≈ 6.7 µM)
IC50 [16]: 3.01 µg/mL (≈ 6.59 µM)
IC50 [17]: 3.6 µg/mL (≈ 7.88 µM)
IC50 [18]: 3.09 µg/mL (≈ 6.77 µM)
IC50 [19]: 4.08 µg/mL (≈ 8.94 µM)
IC50 [20]: 3.5 µg/mL (≈ 7.67 µM)
IC50 [21]: 3.04 µg/mL (≈ 6.66 µM)
IC50 [22]: 4.16 µg/mL (≈ 9.11 µM)
